Results: paper PMC8578705 (Cell Reports, 2021)

Key:
SERCAs = experiment: Ca2+ uptake by the intracellular stores of permeabilized HEK-IP3R1 cells; type: cell-based, Homo sapiens; details: heparin 10 mg/mL
Protocol: Figure S6. Effects of heparin, 2-APB and dequalinium on IP3Rs and Ca2+ uptake by intracellular […]
Related to Figures 5 and 6.
(A) Structures of the antagonists used.
CLM at 20 °C. Mean ± SEM, n = 3.
(C-F) Permeabilized HEK-IP3R1 cells were loaded with Ca2+, and SERCA was then inhibited with CPA (10 μM) before addition of DMSO (1% v/v; C) or dequalinium (10-100 μM, D-F), and then the indicated […]
Mean of 2 replicates, typical of 5 experiments.
(G) Summary results (mean ± SEM, n = 5, each with duplicate determinations) show Ca2+ released by […]
ER Ca2+ content was measured 20
(H-J) Similar analyses of the effects of heparin (10 mg/mL, I) or 2-APB (125 μM, J). Means of 2 replicates, typical of 3-5 experiments.
(K) Effects of dequalinium (50 μM), heparin (10 mg/mL) or 2-APB (125 μM) on Ca2+ uptake by the intracellular stores of permeabilized HEK-IP3R1 cells. Mean ± SD of 4-6 replicates, typical of 4 […]
(L) and the rate of Ca2+ uptake (M). ER Ca2+ content was measured 180 s after addition of ATP (L).
Mean ± SEM, n = 4, each with 4-6 determinations. ****P < 0.0001, ***P < 0.001, *P < 0.05 one-way ANOVA with Bonferroni's test relative to control.

IP3R1 (HEK-IP3R1 cells) = biological target: T1, IP3R1 (HEK-IP3R1 cells) (Rattus norvegicus, UniProt P29994); experiment: Ca2+ release from permeabilized HEK-IP3R1 cells; type: cell-based; details: at the concentrations used (heparin 10 mg/mL, dequalinium 50 μM, 2-APB 125 μM), permeabilized HEK-IP3R1 cells
T1 construct: expressed in transfected cells
Protocol: Fluorescence, which is approximately linearly related to ER free [Ca^2+] […] Ca^2+-free CLM comprised: 20 mM NaCl, 140 mM KCl, 1 mM EGTA, 20 mM PIPES, 2 mM MgCl2, pH 7.0. […] MgATP (1.5 mM) was added to initiate Ca^2+ uptake, and when the ER had loaded to steady state with Ca^2+ (∼150 s), ligands were added. Responses to the ligands show ER Ca^2+ contents as either time courses or, in summary results, as the Ca^2+ content recorded 20 s after addition of the stimulus. The distribution of samples across 96-well plates was varied between experiments to avoid any systematic ‘position-related’ artifacts. HEK-G-CEPIA1er cells were permeabilized and assayed as described for Mag-fluo 4-loaded cells.
For equilibrium binding and concentration-effect relationships, results from each experiment were fitted to Hill equations (PRISM) from which pIC50 (-log of half-maximal inhibitory concentration) or pEC50 (-log of half-maximally effective concentration) values were determined.

T1 sequence (P29994 1-2735 isoform P29994-2): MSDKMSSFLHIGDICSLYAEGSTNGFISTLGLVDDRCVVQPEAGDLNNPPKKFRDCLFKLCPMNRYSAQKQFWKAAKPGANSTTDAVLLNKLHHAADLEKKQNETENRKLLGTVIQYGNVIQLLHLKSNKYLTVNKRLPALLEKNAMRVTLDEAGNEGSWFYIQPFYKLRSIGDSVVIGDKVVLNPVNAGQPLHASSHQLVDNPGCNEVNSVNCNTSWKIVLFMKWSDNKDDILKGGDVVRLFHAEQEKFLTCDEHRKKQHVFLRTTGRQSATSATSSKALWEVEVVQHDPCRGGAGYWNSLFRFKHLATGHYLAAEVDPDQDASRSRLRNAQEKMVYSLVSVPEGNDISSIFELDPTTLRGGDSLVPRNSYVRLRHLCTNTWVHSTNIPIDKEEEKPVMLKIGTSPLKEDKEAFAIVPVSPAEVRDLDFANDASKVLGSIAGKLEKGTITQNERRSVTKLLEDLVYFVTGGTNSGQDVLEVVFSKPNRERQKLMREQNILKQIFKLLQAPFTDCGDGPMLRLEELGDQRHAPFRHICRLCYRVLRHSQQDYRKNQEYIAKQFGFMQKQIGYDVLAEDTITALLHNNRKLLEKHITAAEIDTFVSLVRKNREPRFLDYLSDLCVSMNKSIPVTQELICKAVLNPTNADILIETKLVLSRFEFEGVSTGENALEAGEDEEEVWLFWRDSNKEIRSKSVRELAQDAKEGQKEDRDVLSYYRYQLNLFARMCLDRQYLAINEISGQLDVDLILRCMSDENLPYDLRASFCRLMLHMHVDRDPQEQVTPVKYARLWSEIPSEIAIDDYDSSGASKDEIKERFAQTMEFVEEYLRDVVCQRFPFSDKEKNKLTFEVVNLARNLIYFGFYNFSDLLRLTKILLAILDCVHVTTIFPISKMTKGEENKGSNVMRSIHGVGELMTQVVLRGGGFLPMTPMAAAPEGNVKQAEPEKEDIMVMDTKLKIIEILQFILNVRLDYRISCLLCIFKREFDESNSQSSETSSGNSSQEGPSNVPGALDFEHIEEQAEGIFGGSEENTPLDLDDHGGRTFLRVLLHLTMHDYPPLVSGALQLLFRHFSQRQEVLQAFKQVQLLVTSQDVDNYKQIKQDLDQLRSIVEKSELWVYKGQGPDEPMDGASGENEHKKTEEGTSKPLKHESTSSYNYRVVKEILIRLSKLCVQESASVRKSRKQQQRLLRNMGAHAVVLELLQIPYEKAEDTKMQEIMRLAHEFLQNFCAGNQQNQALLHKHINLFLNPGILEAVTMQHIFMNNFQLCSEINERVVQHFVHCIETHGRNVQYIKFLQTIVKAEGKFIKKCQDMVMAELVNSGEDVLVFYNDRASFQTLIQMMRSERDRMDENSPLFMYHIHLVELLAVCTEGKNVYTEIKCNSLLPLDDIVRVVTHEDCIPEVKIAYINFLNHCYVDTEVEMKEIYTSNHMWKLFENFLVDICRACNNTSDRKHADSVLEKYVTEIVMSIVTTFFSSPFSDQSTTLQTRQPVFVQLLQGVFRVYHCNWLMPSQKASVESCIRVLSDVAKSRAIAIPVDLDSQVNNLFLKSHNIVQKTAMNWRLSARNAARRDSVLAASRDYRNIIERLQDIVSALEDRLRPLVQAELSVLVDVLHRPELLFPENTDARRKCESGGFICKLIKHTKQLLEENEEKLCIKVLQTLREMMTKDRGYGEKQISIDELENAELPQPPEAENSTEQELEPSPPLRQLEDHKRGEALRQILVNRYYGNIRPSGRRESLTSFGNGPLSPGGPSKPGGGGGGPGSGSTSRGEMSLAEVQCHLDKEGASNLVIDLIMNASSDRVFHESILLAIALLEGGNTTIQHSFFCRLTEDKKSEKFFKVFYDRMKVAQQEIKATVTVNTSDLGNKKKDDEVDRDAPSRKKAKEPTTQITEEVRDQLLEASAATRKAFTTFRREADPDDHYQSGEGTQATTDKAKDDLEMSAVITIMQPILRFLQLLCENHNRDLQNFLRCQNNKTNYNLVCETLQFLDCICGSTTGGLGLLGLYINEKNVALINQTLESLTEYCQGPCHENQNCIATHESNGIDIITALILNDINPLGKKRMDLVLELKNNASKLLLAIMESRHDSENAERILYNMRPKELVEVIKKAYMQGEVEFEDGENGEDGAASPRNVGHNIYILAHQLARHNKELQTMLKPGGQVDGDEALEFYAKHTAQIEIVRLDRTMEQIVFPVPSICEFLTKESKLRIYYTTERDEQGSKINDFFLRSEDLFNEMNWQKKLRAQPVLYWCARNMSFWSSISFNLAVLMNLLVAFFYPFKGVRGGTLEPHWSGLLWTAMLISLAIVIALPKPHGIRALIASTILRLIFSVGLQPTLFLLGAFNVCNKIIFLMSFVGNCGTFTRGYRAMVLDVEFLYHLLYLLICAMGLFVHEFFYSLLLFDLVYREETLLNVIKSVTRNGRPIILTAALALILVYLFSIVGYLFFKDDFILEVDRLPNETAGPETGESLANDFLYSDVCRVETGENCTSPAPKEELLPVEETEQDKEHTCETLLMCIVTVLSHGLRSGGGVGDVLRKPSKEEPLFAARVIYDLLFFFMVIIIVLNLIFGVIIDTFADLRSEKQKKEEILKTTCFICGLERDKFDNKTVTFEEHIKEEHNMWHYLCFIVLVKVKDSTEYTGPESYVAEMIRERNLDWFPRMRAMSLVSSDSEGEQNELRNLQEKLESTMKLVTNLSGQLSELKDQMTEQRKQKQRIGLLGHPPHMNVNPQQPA

## Heparin, sodium salt
SERCAs
  effect on SERCAs (Ca2+ uptake): partial inhibition
IP3R1 (HEK-IP3R1 cells)
  block of IP3-evoked Ca2+ release: completely
